Laboratory results taken from patent publication US10350271B2, “Lipidated peptides for lowering blood glucose” (USTAV ORGANICKE CHEMIE A BIOCHEMIE AKADEMIE VED CR, V.V.I., priority 2014, dated 2019).
Where two headings read alike, the source gives them in different places. Square brackets hold non-standard residues; d marks the D form. Ends that are not written are not given here. Peptide text beside a SMILES is read from it. * marks the point of attachment. 1Nal = N[C@@H](Cc1cccc2ccccc12)C(=O)O; Palmitoyl = CCCCCCCCCCCCCCCC(=O)*; Myristoyl = CCCCCCCCCCCCCC(=O)*; X1 = CONC(=O)[C@H](Cc1ccccc1)N*; Nle = CCCC[C@H](N)C(=O)O

Key:
[1] = target: T1, human PrRP receptor GPR10 (Homo sapiens, UniProt P49683); assay: Competitive binding in CHO cells transfected with human GPR10 (human 125I-PrRP31); conditions: for % of PrRP31, GPR10 human receptor transfected in CHO cells: affinity relative to PrRP31
T1 construct: host or cells: CHO cells
T1 sequence (P49683 1-370): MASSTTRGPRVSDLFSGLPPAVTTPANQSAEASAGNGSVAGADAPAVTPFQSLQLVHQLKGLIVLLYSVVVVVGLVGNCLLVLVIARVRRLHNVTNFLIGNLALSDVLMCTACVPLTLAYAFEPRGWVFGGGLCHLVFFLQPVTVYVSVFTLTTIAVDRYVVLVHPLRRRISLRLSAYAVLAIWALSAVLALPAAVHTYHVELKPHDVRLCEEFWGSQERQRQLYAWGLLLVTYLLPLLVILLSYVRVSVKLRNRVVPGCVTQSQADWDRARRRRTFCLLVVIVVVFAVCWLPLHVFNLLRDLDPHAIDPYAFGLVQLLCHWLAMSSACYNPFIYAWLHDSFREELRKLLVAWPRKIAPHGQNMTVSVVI
Method: (§1) Competitive binding experiments were performed according to Motulsky and Neubig (Motulsky, A., et al., “Analyzing radioligand binding data,” Curr Protoc Neurosci, Chapter 7, Unit 7.5, 2002). Binding experiments were conducted with rat pituitary cells, and with Chinese Hamster Ovary (CHO) cells as follows:
CHO cells transfected with human PrRP receptor GPR10 (Perkin Elmer, USA) were grown on 24-well plates coated with polyethyleneimine. The cells were grown to the optimal density of 40-80 thousand cells per well. The following agents were used for the experiment: binding buffer (25 mmol·l^−1 Tris, pH 7.4; 118 mmol·l^−1 NaCl, 10 mmol·l^−1 MgCl2, 10 mmol·l^−1 CaCl2, 5.5 mmol·l^−1 glucose, 0.5 mg/ml BSA), unlabeled analogs of PrRP (i.e. the analog being tested) at a final concentration between 10^−11 to 10^−4 mol·l^−1, and radiolabeled human ^125I-PrRP31 at a final concentration of 5×10^−11 mol·l^−1.
(§2) Plates were incubated for 60 minutes at room temperature. After incubation, the cells were solubilized in 0.1 mol/l solution of NaOH, and the radioactivity bound to the cells was counted using a γ-counter. The experiments were performed in duplicate, and repeated at least three times.
(§3) Graph Pad Prism Software (San Diego, Calif., USA) was used for evaluating the competitive binding experiments. Nonlinear regression was performed using a onsite binding model.

[2] = target: T2, rat PrRP receptor (Rattus norvegicus, UniProt Q64121); assay: Competitive binding in RC-4B/C rat pituitary cells (125I-rat PrRP31); conditions: for % of PrRP31, RC-4B/C rat pituitary cells: affinity relative to PrRP31
T2 construct: host or cells: RC-4B/C rat pituitary cell line
T2 sequence (Q64121 1-370): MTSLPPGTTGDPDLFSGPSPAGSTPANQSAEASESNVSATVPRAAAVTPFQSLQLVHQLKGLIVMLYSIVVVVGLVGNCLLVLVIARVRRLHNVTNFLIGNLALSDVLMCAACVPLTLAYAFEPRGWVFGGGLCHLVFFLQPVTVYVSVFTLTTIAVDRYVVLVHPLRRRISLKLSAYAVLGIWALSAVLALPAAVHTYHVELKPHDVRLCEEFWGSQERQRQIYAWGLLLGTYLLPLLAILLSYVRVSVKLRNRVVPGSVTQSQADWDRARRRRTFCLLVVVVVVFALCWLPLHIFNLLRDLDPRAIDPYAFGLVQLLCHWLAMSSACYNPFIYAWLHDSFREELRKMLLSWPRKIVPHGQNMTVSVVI
Method: as §1
The rat pituitary cell line RC-4B/C (ATCC, Manassas, USA) was grown on 24-well plates which had their bottom coated with polyethyleneimine. The cells were grown to the optimal density of 300-450 thousand cells per well. The following agents were used for the experiment: binding buffer (20 mmol·l^−1 HEPES, Ph 7.4; 118 mmol·l^−1 NaCl, 4.7 mmol·l^−1 KCl, 5 mmol·l^−1 MgCl2, 5.5 mmol·l^−1 glucose, 1 mg/ml BSA, 0.1 BPTI), unlabeled analogs of PrRP (i.e. the analog being tested) at a final concentration between 10^−11 to 10^−4 mol·l^−1, and rat ^125I-PrRP31 (labeled with radioactive Iodine-125) at a final concentration of […] (Maixnerová et al., 2011).
as §2, §3

[3] = CHO cells, human 125I-PrRP31, read-out: Ki, GPR10 human receptor transfected in CHO cells

% of PrRP31, GPR10 human receptor transfected in CHO cells [1] [%]	% of PrRP31, RC-4B/C rat pituitary cells [2] [%]	Compound	other results
11	4.8	CCCC[C@H](NC(=O)[C@H](CO)NC(=O)[C@H](Cc1c[nH]cn1)NC(=O)[C@H](CCC(N)=O)NC(=O)[C@H](Cc1c[nH]cn1)NC(=O)[C@H](C)NC(=O)[C@H](CCCNC(=N)N)NC(=O)[C@@H](N)CO)C(=O)N[C@@H](CCC(=O)O)C(=O)N[C@H](C(=O)N[C@@H](CCCNC(=N)N)C(=O)N[C@H](C(=O)N1CCC[C@H]1C(=O)N[C@@H](CC(=O)O)C(=O)N[C@H](C(=O)N[C@@H](CC(N)=O)C(=O)N1CCC[C@H]1C(=O)N[C@@H](C)C(=O)N[C@@H](Cc1c[nH]c2ccccc12)C(=O)N[C@@H](Cc1ccc(O)cc1)C(=O)N[C@H](C(=O)NCC(=O)N[C@@H](CCCNC(=N)N)C(=O)NCC(=O)N[C@H](C(=O)N[C@@H](CCCNC(=N)N)C(=O)N1CCC[C@H]1C(=O)N[C@H](C(=O)NCC(=O)N[C@@H](CCCNC(=N)N)C(=O)N[C@@H](Cc1cccc2ccccc12)C(N)=O)C(C)C)[C@@H](C)CC)[C@@H](C)O)[C@@H](C)CC)[C@@H](C)O)[C@@H](C)O [Analog 10] (H-SRAHQHS[Nle]ETRTPDINPAWYTGRGIRPVGR[1Nal]-NH2)	–
292	124	CCCCCCCCCCCCCC(=O)N[C@@H](CO)C(=O)N[C@@H](CCCNC(=N)N)C(=O)N[C@@H](C)C(=O)N[C@@H](Cc1c[nH]cn1)C(=O)N[C@@H](CCC(N)=O)C(=O)N[C@@H](Cc1c[nH]cn1)C(=O)N[C@@H](CO)C(=O)N[C@@H](CCCC)C(=O)N[C@@H](CCC(=O)O)C(=O)N[C@H](C(=O)N[C@@H](CCCNC(=N)N)C(=O)N[C@H](C(=O)N1CCC[C@H]1C(=O)N[C@@H](CC(=O)O)C(=O)N[C@H](C(=O)N[C@@H](CC(N)=O)C(=O)N1CCC[C@H]1C(=O)N[C@@H](C)C(=O)N[C@@H](Cc1c[nH]c2ccccc12)C(=O)N[C@@H](Cc1ccc(O)cc1)C(=O)N[C@H](C(=O)NCC(=O)N[C@@H](CCCNC(=N)N)C(=O)NCC(=O)N[C@H](C(=O)N[C@@H](CCCNC(=N)N)C(=O)N1CCC[C@H]1C(=O)N[C@H](C(=O)NCC(=O)N[C@@H](CCCNC(=N)N)C(=O)N[C@@H](Cc1cccc2ccccc12)C(N)=O)C(C)C)[C@@H](C)CC)[C@@H](C)O)[C@@H](C)CC)[C@@H](C)O)[C@@H](C)O [Analog 11] (Myristoyl-SRAHQHS[Nle]ETRTPDINPAWYTGRGIRPVGR[1Nal]-NH2)	–
–	0.00004	CCCC[C@H](NC(=O)CNC(=O)[C@H](CCCNC(=N)N)NC(=O)[C@@H]1CCCN1C(=O)[C@H](Cc1ccc(O)cc1)NC(=O)[C@H](Cc1c[nH]c2ccccc12)NC(=O)[C@H](Cc1c[nH]cn1)NC(=O)[C@@H](NC(=O)[C@H](CC(=O)O)NC(=O)[C@H](C)NC(=O)[C@@H]1CCCN1C(=O)[C@H](CCCNC(=N)N)NC(=O)[C@H](CCC(N)=O)NC(=O)[C@H](Cc1c[nH]cn1)NC(=O)[C@@H](N)CO)[C@@H](C)O)C(=O)N[C@@H](Cc1ccccc1)C(=O)N1CCC[C@H]1C(=O)N[C@H](C(=O)N[C@H](C(=O)NCC(=O)N[C@@H](CCCNC(=N)N)C(=O)N[C@H](C(=O)N[C@H](C(=O)N[C@@H](C)C(=O)N[C@@H](CCCNC(=N)N)C(=O)N[C@@H](CC(N)=O)C(=O)NCC(=O)N[C@@H](CCC(=O)O)C(=O)N[C@H](C(=O)N[C@@H](CO)C(=O)N[C@@H](CCCNC(=N)N)C(=O)O)C(C)C)[C@@H](C)O)[C@@H](C)CC)[C@@H](C)CC)[C@@H](C)O [Analog 19] (H-SHQRPADTHWYPRG[Nle]FPTIGRITARNGEVSR-OH; N-terminus and C-terminus assumed)	Ki ([2]; RC-4B/C cells, displacement of 125I-rat PrRP31, read-out: Ki, RC-4B/C rat pituitary cells ^25I-rat PrRP31): 1320 ± 1260 µM
92	–	CCCCCCCCCCCCCCCC(=O)N[C@@H](CO)C(=O)N[C@@H](CCCNC(=N)N)C(=O)N[C@H](C(=O)N[C@@H](Cc1c[nH]cn1)C(=O)N[C@@H](CCCNC(=N)N)C(=O)N[C@@H](Cc1c[nH]cn1)C(=O)N[C@@H](CO)C(=O)N[C@@H](CCSC)C(=O)N[C@@H](CCC(=O)O)C(=O)N[C@H](C(=O)N[C@@H](CCCNC(=N)N)C(=O)N[C@H](C(=O)N1CCC[C@H]1C(=O)N[C@@H](CC(=O)O)C(=O)N[C@H](C(=O)N[C@@H](CC(N)=O)C(=O)N1CCC[C@H]1C(=O)N[C@@H](C)C(=O)N[C@@H](Cc1c[nH]c2ccccc12)C(=O)N[C@@H](Cc1ccc(O)cc1)C(=O)N[C@@H](C)C(=O)N[C@@H](CO)C(=O)N[C@@H](CCCNC(=N)N)C(=O)NCC(=O)N[C@H](C(=O)N[C@@H](CCCNC(=N)N)C(=O)N1CCC[C@H]1C(=O)N[C@H](C(=O)NCC(=O)N[C@@H](CCCNC(=N)N)C(=O)N[C@@H](Cc1ccccc1)C(=O)NOC)C(C)C)[C@@H](C)CC)[C@@H](C)CC)[C@@H](C)O)[C@@H](C)CC)[C@@H](C)O [Analog 45] (Palmitoyl-SRTHRHSMEIRTPDINPAWYASRGIRPVGR-X1)	–
90	–	CCCCCCCCCCCCCCCC(=O)NCCCC[C@H](NC(=O)[C@@H](NC(=O)[C@H](CC(=O)O)NC(=O)[C@@H]1CCCN1C(=O)[C@@H](N)[C@@H](C)O)[C@@H](C)CC)C(=O)N1CCC[C@H]1C(=O)N[C@@H](C)C(=O)N[C@@H](Cc1c[nH]c2ccccc12)C(=O)N[C@@H](Cc1ccc(O)cc1)C(=O)N[C@@H](C)C(=O)N[C@@H](CO)C(=O)N[C@@H](CCCNC(=N)N)C(=O)NCC(=O)N[C@H](C(=O)N[C@@H](CCCNC(=N)N)C(=O)N1CCC[C@H]1C(=O)N[C@H](C(=O)NCC(=O)N[C@@H](CCCNC(=N)N)C(=O)N[C@@H](Cc1ccccc1)C(N)=O)C(C)C)[C@@H](C)CC [Analog 49] (H-TPDIK(Palmitoyl)PAWYASRGIRPVGRF-NH2)	Ki [1, 3]: 0.00434 ± 0.00045 µM
69	–	CCCCCCCCCCCCCCCC(=O)NCCCC[C@H](NC(=O)[C@@H]1CCCN1C(=O)[C@H](CC(N)=O)NC(=O)[C@@H](NC(=O)[C@H](CC(=O)O)NC(=O)[C@@H]1CCCN1C(=O)[C@@H](N)[C@@H](C)O)[C@@H](C)CC)C(=O)N[C@@H](Cc1c[nH]c2ccccc12)C(=O)N[C@@H](Cc1ccc(O)cc1)C(=O)N[C@@H](C)C(=O)N[C@@H](CO)C(=O)N[C@@H](CCCNC(=N)N)C(=O)NCC(=O)N[C@H](C(=O)N[C@@H](CCCNC(=N)N)C(=O)N1CCC[C@H]1C(=O)N[C@H](C(=O)NCC(=O)N[C@@H](CCCNC(=N)N)C(=O)N[C@@H](Cc1ccccc1)C(N)=O)C(C)C)[C@@H](C)CC [Analog 50] (H-TPDINPK(Palmitoyl)WYASRGIRPVGRF-NH2)	Ki [1, 3]: 0.00564 ± 0.00035 µM
–	–	SRAHQHSMETRTPDINPAWYTGRGIRPVGRF-NH2 [Rat PrRP31, reference compound]	Ki [1]: 0.00389 ± 0.00112 µM
